This passage reports Osmolality of solution results from US9517208B2, “Abuse-deterrent dosage forms” (PURDUE PHARMA L.P., priority 2013, dated 2016).

The nature of this series: Osmolality of mixtures of crushed tablets (or drug solution) in distilled water, Osmometer Model 3250. It counts as physicochemical. As to conditions: 1 mg/ml, without dextrose, sodium chloride and potassium phosphate dibasic (control). As for the experimental part: The osmolality of the resulting solution may be measured by using an osmometer (e.g., Advanced® Osmometer Model 3250, manufactured by Advanced Instruments, Inc., the User's Guide (3255 Rev13 042710) of which is herein incorporated by reference).
To determine whether mixtures formed by crushing tablets formulated prior to the present invention and mixing the crushed tablets with 3 mL or 5 mL of distilled water are hypertonic, a 30 mg Roxicodone® tablet^1 (oxycodone hydrochloride tablets USP) was crushed with a mortar and pestle to a powder. […]
To determine whether the mixtures (i.e., solutions, suspensions or gels) formed by crushing these tablets and mixing the crushed tablets with 3 mL or 5 mL of distilled water are hypertonic, one tablet of each formulation was crushed with a mortar and pestle. […] The osmolality of the resulting mixtures was measured using Osmometer Model 3250 manufactured by Advanced Instruments, Inc. The following results were obtained: […]
To determine whether the mixtures (i.e., solutions, suspensions or gels) formed by crushing these tablets and mixing the crushed tablets with 3 mL or 5 mL of distilled water are hypertonic, one tablet from each blend was crushed with a mortar and pestle to a powder. […] The osmolality of the resulting mixtures was measured twice using Osmometer Model 3250 manufactured by Advanced Instruments, Inc. The following results were obtained: […]

With `COc1ccc2c3c1O[C@H]1C(=O)CC[C@H]4[C@@H](C2)N(C)CC[C@]314.O=C(O)C(O)C(O)C(=O)O` [hydrocodone bitartrate], the Osmolality of solution was determined as 4 mOsmol.
